Assay results: patent US20200407717A1, “METHODS OF MODULATING ANTISENSE ACTIVITY” (Ionis Pharmaceuticals, Inc., priority 2018, published 2020)
e = 2'-O-(2-methoxyethyl) (MOE); d = 2'-deoxy (DNA)

What was measured:
A431 cells [1] = experiment: Localization in early and late endosomes after siRNA treatment; type: cell-based; details: 20 cells; for % ASO EE/Total ASO: early endosomes (EEA1); for % ASO LE/Total ASO: late endosomes (LAMP1)
Method: EGFR levels in A431 cells were reduced using two siRNAs targeting EGFR, Assay ID 42833 and Assay ID 644 (ThermoFisher). A siRNA targeting luciferase was used for a control. Treatment of cells with the EGFR siRNA reduced EGFR protein levels more than 80%. Following siRNA treatment, cells were treated with additional compounds to test for antisense compound localization, activity, or uptake, as described below.
Following siRNA treatment, cells were treated with compound no. 446654 for two hours. EEA1 was labeled as in Example 2 and LAMP1 was labeled with an antibody. EEA1 is a marker for early endosomes and LAMP1 is a marker for late endosomes. Co-localization of compound no. 446654 with EEA1 and with LAMP1 was observed. The number of 446654 loci co-localized with EEA1 or LAMP1 was counted in 20 cells, and compared to the total number of 446654 loci. The difference observed with control siRNA treatment vs EGFR siRNA treatment shown in Table 22 is significant, as determined by the student T-test (p<0.05), whereas the difference shown in Table 23 was not determined to be significant by the student T-test.

A431 cells [2] = experiment: Immunofluorescent microscopy co-localization; type: cell-based
Method: Immunofluorescent staining was used to visualize clathrin, EGFR, and PS-ASOs in A431 cells. Compound no. 446654 has the sequence and structure Cy3-^mCesTesGes^mCesTesAdsGds^mCdsTds^mCdsTdsGdsGdsAdsTesTesTesGesAe (SEQ ID NO: 10). Cells were incubated with FITC labeled epidermal growth factor (EGF) or unlabeled EGF and compound no. 446654 for 30 minutes, then fixed with 4% paraformaldehyde for 20 minutes at room temperature and permeabilized with 0.05% saponin (Sigma) in PBS for 5 minutes. Cells were treated with blocking buffer (1 mg/mL BSA in PBS) for 30 minutes and then incubated with primary antibodies at room temperature for 2-4 hours or at 4° C. overnight. Primary antibodies used were ab30 (Abcam) for EGFR, ab21679 (Abcam) for clathrin, and antibody 610456 (BD Bioscience) for early endosome antigen 1 (EEA1). After three washes with PBS, cells were fluorescently labeled with secondary antibodies at room temperature for 1-2 hours. Secondary antibodies used were anti-mouse conjugated to AF488 (ab150077, Abcam) or AF647 (ab150079, Abcam), and anti-rabbit conjugated to AF488 (ab150113, Abcam) or AF647 (ab150115, Abcam). Nuclei were labeled with Hoechst 33342. Cells were then visualized with a confocal microscope (Olympus FV-1000), and single slices and Z-stack images were obtained. Co-localization between PS-ASOs and different organelles was analyzed using FV10-ASW 3.0 viewer software.

EGFR = EGFR (Homo sapiens, UniProt P00533); experiment: Competitive NanoBRET binding assay; design: made in house; host or cells: HEK293 cells; details: Competitive BRET vs 10 nM AF594-labeled 766636; Table 6
Method: NanoBRET (bioluminescence resonance energy transfer) binding assays were performed as described in Vickers and Crooke. PLOS One, 11(8), (2016). An EGFR NLuc construct was prepared by first amplifying human EGFR from the full length cDNA clone (Origene RC217223) with forward PCR primer 5′-[…]-3′ (SEQ ID NO: 1) and reverse PCR primer 5′-[…] (SEQ ID NO: 2). The amplified product was ligated into the NheI and XhoI sites of the NanoLuc expression vector pFC32K Nluc CMV-Neo (Promega). Protein was expressed in HEK293 cells and isolated using Protein G magnetic beads. For competitive BRET, the Alexafluor594-labeled modified oligonucleotide 766636 was diluted into water in opaque white 96-well plates at 10 nM and competed with 0.1-10,000 nM of unlabeled modified oligonucleotide. […] of 2× binding buffer containing […] (relative luminescence units) beads/well was added and plates were shaken for 10 minutes at room temperature. Nanoluciferase activity and BRET were measured in a Glowmax Discover plate reader and EC50 values, shown in the tables below, were calculated using GraphPad Prism. For direct BRET, Alexafluor594 modified nucleotides were diluted at 0.1-10,000 nM and experiments were performed as described above.

[3] = FITC-EGF, 30 minutes, EGFR and clathrin antibodies
[4] = FITC-EGF, EGFR and EEA1 antibodies
[5] = unlabeled EGF, 30 minutes, EGFR and clathrin antibodies
[6] = unlabeled EGF, EGFR and EEA1 antibodies

Row | Substance | % ASO EE/Total ASO (A431 cells [1]; Control luciferase siRNA) | % ASO EE/Total ASO (A431 cells [1]; EGFR siRNA-1) | % ASO LE/Total ASO (A431 cells [1]; Control luciferase siRNA) | % ASO LE/Total ASO (A431 cells [1]; EGFR siRNA-1) | co-localization with EGF (A431 cells [2]; [3]) | co-localization with clathrin (A431 cells [2]; [3]) | co-localization with EEA1 (A431 cells [2]; [4]) | co-localization with EGF (A431 cells [2]; [4]) | co-localization with EGFR (A431 cells [2]; [5]) | co-localization with clathrin (A431 cells [2]; [5]) | co-localization with EEA1 (A431 cells [2]; [6]) | co-localization with EGFR (A431 cells [2]; [6]) | EC50 (EGFR)
1 | Cy3-^mCesTesGes^mCesTesAdsGds^mCdsTds^mCdsTdsGdsGdsAdsTesTesTesGesAe (antisense CTGCTAGCCTCTGGATTTGA; listed as DNA, chemistry not fully specified) [compound 446654, Cy3-labeled PS-ASO] | 15% | 26% | 79% | 66% | observed within the cytoplasm and at the cell surface | observed at the cell surface | observed within the cytoplasm | observed both at the cell surface and within the cytoplasm | observed both at the cell surface and within the cytoplasm | observed at the cell surface | observed in the cytoplasm and within the nucleus | observed at the cell surface, in the cytoplasm, and within the nucleus | –
2 | AGGAAGGAAGCTGGCGATCT (sugars from the 5' end e5 d10 e5, all phosphorothioate, methylation of C not given here) [compound 25690] | – | – | – | – | – | – | – | – | – | – | – | – | 1450 nM
3 | GGCATATGCAGATAATGTTC (sugars from the 5' end e5 d10 e5, all phosphorothioate, methylation of C not given here) [compound 395254] | – | – | – | – | – | – | – | – | – | – | – | – | 1240 nM
